Earlier results as cited in patent publication US11554190B2, “Nanocarriers for the delivery of active ingredients” (President and Fellows of Harvard College, priority 2017, dated 2023).
Where two headings read alike, the source gives them in different places.

Tests used:
Listeria on lettuce = settings: vaporized from 10% w/v hydrogen peroxide solution
[1] = tested on: Acinetobacter on surfaces; settings: peak hydrogen peroxide concentration 500-600 ppm
[2] = tested on: surface deposited influenza; settings: 90 ppm of vapor phase H2O2, similar times of treatment
bacteria = settings: same amount of time
pathogens on surfaces = settings: 5% w/v, wet approach

OO [hydrogen peroxide]
log reduction in concentration of Listeria on lettuce (Listeria on lettuce): 3 log
log reductions in the concentration of Acinetobacter on surfaces [1]: 4 log
log reductions of surface deposited influenza [2]: 5 log
log reduction (bacteria; aqueous solution at 5% concentration): 2.2 log
log reduction (bacteria; aqueous solution at 10% concentration): 3.5 log
effectiveness against pathogens on surfaces (pathogens on surfaces): ineffective
